The results in this text go back to ChEMBL document CHEMBL1158696, “Bioactive asterosaponins from the starfish Culcita novaeguineae” (J Nat Prod, 2005).

For one assay, the system named is K562. Kind of assay: Cytotoxicity against human K562 cells after 72 hrs by MTT assay. The conditions noted are these: K562, 72 h. Format: functional, cell-based.
The next assay relates to Bel-7402. Description: Cytotoxicity against human Bel7402 cells after 72 hrs by SRB assay. Format: functional, cell-based. The conditions noted are these: Bel-7402, 72 h.

On to `CC(C)CC(=O)C[C@](C)(O)[C@H]1CC[C@H]2[C@@H]3C[C@H](O[C@@H]4O[C@H](C)[C@@H](O)[C@H](O[C@@H]5OC[C@@H](O[C@@H]6O[C@H](C)[C@H](O)[C@H](O)[C@H]6O[C@@H]6O[C@H](C)[C@H](O)[C@H](O)[C@H]6O)[C@H](O)[C@H]5O[C@@H]5O[C@H](C)[C@H](O)[C@H](O)[C@H]5O)[C@H]4O)[C@H]4C[C@@H](OS(=O)(=O)[O-])CC[C@]4(C)C3=CC[C@@]21C.[Na+]` [regularoside B], for which the values for the concentration for half-maximal inhibition (IC50) in the assay with K562 and in the assay on Bel-7402 were 17.4 µg/mL and 14.5 µg/mL, respectively.
As for `CC(C)[C@H](C)[C@@H]1O[C@H]1[C@](C)(O)[C@H]1CC[C@H]2[C@@H]3C[C@H](O[C@@H]4O[C@H](CO)[C@@H](O)[C@H](O[C@@H]5O[C@H](C)[C@@H](O[C@@H]6OC[C@H](O)[C@H](O)[C@H]6O[C@@H]6O[C@H](C)[C@H](O)[C@H](O)[C@H]6O)[C@H](O)[C@H]5O[C@@H]5O[C@H](C)[C@H](O)[C@H](O)[C@H]5O)[C@H]4O)[C@H]4C[C@@H](OS(=O)(=O)[O-])CC[C@]4(C)C3=CC[C@]12C.[Na+]` [NOVAEGUINOSIDE II], the IC50 in the assay on K562 amounted to 4.9 µg/mL; in the assay with Bel-7402 it was 4.1 µg/mL.
With `CC(C)[C@H](C)[C@@H]1O[C@H]1[C@](C)(O)[C@H]1CC[C@H]2[C@@H]3C[C@H](O[C@@H]4O[C@H](CO)[C@@H](O)[C@H](O[C@@H]5O[C@H](C)[C@@H](O[C@@H]6O[C@H](C)[C@H](O)[C@H](O)[C@H]6O[C@@H]6O[C@H](C)[C@H](O)[C@H](O)[C@H]6O)[C@H](O)[C@H]5O[C@@H]5O[C@H](C)[C@H](O)[C@H](O)[C@H]5O)[C@H]4O)[C@H]4C[C@@H](OS(=O)(=O)[O-])CC[C@]4(C)C3=CC[C@]12C.[Na+]` [NOVAEGUINOSIDE I], the results for the IC50 in the assay with K562 and in the assay with Bel-7402 were 8.6 µg/mL and 9.2 µg/mL, respectively.
